We go through 15 compounds from patent US20250170248A1, “SMARCA DEGRADERS AND USES THEREOF” (Kymera Therapeutics, Inc., priority 2021, published 2025).

The target of one experiment is SMARCA2 (Homo sapiens, UniProt P51531). Kind of experiment: SMARCA2 Western blot degradation in MV4-11 cells. Type of experiment: cell-based. Further details: SMARCA2/SMARCA4 protein degradation selectivity in MV4-11 cells; endogenous in cells; host or cells: MV4-11. The following applies: for Dmax: MV4-11, MV4-11 cells, read-out: SMARCA2 MSD MV411 degradation 24 h: average Dmax %; for Dmax / DC50 / SMARCA2 MSD MV411 degradation 24 h: average Dmax %: 24 h; for DC50 / Selectivity in MV411 / SMARCA2 MSD MV411 degradation 24 h: average Dmax %: MV4-11 cells; for DC50: read-out: SMARCA2 MSD MV411 degradation 24 h: Mean external-Abs DC50; for Selectivity in MV411: SMARCA2/4 selectivity. For orientation: Immunoblotting shows a protein as a band on a membrane.
Chain of SMARCA2 (P51531 whole entry): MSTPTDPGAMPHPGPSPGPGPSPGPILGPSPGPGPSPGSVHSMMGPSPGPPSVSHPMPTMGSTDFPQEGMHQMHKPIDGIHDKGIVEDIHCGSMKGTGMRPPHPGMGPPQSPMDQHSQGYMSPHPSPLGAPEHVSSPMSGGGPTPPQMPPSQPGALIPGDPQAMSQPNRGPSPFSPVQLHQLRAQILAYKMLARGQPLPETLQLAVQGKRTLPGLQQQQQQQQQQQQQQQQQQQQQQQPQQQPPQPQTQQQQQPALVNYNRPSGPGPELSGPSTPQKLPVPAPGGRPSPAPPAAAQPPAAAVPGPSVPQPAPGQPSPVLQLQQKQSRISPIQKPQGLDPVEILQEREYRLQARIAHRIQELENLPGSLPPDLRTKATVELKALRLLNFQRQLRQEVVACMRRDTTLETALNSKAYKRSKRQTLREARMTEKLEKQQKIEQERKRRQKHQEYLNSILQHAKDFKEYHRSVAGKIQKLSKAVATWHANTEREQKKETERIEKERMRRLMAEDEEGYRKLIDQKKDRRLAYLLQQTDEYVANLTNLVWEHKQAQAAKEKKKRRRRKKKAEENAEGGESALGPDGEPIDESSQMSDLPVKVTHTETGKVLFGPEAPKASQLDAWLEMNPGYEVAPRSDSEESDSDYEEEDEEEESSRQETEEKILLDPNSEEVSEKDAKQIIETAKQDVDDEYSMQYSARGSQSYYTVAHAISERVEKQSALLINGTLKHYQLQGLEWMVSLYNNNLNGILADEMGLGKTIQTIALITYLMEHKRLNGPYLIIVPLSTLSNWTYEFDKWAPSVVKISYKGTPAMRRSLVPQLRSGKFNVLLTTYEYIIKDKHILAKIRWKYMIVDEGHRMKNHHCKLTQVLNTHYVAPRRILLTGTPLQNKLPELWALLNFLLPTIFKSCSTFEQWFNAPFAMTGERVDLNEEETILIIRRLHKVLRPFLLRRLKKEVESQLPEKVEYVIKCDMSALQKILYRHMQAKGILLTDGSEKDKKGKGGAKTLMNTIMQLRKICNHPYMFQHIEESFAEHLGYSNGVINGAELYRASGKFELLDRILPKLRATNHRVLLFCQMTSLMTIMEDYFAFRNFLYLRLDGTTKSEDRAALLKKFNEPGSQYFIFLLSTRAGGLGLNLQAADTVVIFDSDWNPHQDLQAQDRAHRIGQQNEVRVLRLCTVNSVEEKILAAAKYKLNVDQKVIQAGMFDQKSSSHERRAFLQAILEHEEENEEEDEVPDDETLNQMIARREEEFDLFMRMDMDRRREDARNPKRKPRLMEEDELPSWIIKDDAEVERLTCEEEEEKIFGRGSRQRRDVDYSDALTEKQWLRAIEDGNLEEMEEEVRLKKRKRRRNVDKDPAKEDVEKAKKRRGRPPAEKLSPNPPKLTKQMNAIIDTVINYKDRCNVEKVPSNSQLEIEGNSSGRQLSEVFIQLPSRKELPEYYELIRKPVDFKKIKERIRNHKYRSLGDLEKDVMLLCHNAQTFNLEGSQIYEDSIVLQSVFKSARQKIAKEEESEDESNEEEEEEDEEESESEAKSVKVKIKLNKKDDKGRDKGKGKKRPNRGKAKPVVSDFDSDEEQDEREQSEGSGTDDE

The target in another experiment is T1, SMARCA4 (Homo sapiens, UniProt P51532).
T1 construct: SMARCA2/SMARCA4 protein degradation selectivity in MV4-11 cells; endogenous in cells; host or cells: MV4-11
T1 sequence (P51532 whole entry): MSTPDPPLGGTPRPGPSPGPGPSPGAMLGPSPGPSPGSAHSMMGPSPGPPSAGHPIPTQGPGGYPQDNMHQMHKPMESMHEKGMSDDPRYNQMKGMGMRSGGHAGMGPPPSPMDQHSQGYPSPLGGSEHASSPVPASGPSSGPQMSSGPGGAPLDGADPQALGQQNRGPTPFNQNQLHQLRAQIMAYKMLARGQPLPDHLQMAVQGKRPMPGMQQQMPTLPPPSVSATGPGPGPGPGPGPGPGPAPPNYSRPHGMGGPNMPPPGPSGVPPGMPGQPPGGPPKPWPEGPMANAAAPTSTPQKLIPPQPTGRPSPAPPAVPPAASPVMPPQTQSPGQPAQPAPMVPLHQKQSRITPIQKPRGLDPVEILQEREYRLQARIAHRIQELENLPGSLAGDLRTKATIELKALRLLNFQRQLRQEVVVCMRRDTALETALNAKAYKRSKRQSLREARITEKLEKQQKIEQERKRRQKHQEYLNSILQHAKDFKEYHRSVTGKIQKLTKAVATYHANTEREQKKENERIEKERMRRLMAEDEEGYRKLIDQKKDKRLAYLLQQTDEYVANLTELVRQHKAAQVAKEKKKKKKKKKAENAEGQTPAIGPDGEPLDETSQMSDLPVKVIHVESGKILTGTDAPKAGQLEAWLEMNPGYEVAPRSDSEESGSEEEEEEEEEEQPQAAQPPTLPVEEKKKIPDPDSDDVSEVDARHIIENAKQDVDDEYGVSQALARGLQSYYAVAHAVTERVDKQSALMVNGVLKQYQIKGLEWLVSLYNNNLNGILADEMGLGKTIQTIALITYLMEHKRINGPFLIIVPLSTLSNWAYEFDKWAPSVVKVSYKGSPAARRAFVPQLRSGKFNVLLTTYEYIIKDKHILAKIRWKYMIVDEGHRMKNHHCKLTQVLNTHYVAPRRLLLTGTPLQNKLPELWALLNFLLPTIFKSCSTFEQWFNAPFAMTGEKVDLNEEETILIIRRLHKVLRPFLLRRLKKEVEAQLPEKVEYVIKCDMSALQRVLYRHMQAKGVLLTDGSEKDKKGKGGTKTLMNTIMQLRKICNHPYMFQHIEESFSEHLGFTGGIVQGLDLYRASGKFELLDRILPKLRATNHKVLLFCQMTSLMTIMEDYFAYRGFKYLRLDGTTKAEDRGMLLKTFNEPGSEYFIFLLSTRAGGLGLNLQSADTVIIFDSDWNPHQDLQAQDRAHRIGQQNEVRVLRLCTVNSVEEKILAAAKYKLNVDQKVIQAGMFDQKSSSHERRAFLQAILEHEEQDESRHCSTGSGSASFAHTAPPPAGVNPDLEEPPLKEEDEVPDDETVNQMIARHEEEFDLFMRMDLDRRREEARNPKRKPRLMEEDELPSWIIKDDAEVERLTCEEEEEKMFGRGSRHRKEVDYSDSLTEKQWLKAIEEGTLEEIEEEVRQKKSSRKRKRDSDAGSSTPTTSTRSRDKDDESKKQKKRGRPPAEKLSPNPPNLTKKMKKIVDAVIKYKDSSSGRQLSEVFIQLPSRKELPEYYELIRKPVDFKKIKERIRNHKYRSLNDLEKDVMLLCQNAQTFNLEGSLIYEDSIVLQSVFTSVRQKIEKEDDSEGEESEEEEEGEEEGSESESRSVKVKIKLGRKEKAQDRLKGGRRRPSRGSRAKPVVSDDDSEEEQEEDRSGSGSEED
Kind of experiment: SMARCA4 Western blot degradation in MV4-11 cells. Type of experiment: cell-based. To be noted: for Dmax: MV4-11, MV4-11 cells, read-out: SMARCA4 MSD MV411 degradation 24 h: average Dmax %; for Dmax / DC50: 24 h; for DC50 / SMARCA4 MSD MV411 degradation 24 h: average Dmax %: MV4-11 cells; for DC50: read-out: SMARCA4 MSD MV411 degradation 24 h: Mean external-Abs DC50. As to the method: Example 11. SMARCA2 and SMARCA4 Western Blot MV4-11 Degradation
Cells were seeded into 6-well plates (MV4-11:4×10^6 cells/well/1 ml) and 1 ml of 2× compound solution was added into the well to make the final concentration and the plates were mixed well and incubated for 24 hours (No cytotoxicity was observed). The cell were collected with media and spun at 3000 rpm for 5 minutes. The supernatant was aspirated and the well and the cells were washed with cold PBS once and combined for centrifugation again; the supernatant aspirated again. 200 uL pre-chilled RIPA lysis buffer (Boston BioProducts BP-115D) with protease/phosphatase inhibitor (Roche 05892791001/Roche 04906837001) was directly added into the tube to lyze the cells for 20 minutes on ice. The cell lysate were collected into EP tubes and spun at 13000 rpm for 20 minutes and 72 uL supernatant was transferred to a fresh EP tube containing 18 μL of 5× loading buffer (Beyotime Bio P0015) to make the loading samples. The samples were heated to 100° C. for 10 minutes and cooled to RT and microcentrifuged. 20 μL of samples were loaded onto SDS-PAGE gel (Novex, WG1402BOX) and the gel was run at 80 V for 20 minutes and 120 V for 1.5 hours. The samples were electrotransfer to a NC membrane using wet-transfer method with 250 mA for 2.5 hours. The membrane was blocked with LICOR blocking buffer (LI COR,927-50000) for 1 hour. The membrane was washed three times with TBST(CST #9997S), 5 minutes each. Incubation was performed with primary antibody prepared in blocking buffer with 0.1% Tween-20 (Solarbio, P8220) at 4° C. overnight (Anti-SMARCA2/BRM antibody (ab15597) 1:500; Anti-BRG1 antibody [EPR3912](ab108318) 1:1000; Rabbit anti-Bafl80 antibody [EPR15860](Abcam,ab196022) 1:1000; mouse anti-beta-Actin (8H10D10) (CST #3700) 1:10000). The membrane was washed three times with TBST, 5 minutes each. Incubation with secondary antibody was performed for 1 hour at RT (anti-rabbit IgG (Licor,926-32211) 1:5000; anti-mouse IgG (LI-COR, 926-68070) 1:5000). The membrane was washed three times with 5 minutes each and lastly the LiCOR was read.
The letter codes for SMARCA2/4 degradation potency (DC50) include: A (<1 nM), B (1-10 nM), C (>10-100 nM), and D (>100 nM). The letter codes for the percentage of SMARCA2/4 degradation after 24 hours (Dmax %) include: A (>90% degradation), B (>70-90% degradation), C (50-70% degradation), and D (<50% degradation). The letter codes of SMARCA2/4 selectivity include: A (>500 fold), B (>100-500 fold), C (10-100 fold), and D (<10 fold). Table 8. SMARCA2/4 Selectivity Results

With `Cc1ncsc1-c1ccc(CNC(=O)[C@@H]2C[C@@H](O)CN2C(=O)[C@@H](NC(=O)C2(F)CC2)C(C)(C)C)c(OCCCCN2CCN(c3cnc(N4CCN5c6cc(-c7ccccc7O)nnc6NC[C@H]5C4)nc3)CC2)c1` (single isomer, unassigned) [I-45], on SMARCA2, the Dmax is > 90%, the DC50 was < 1 nM and the “Selectivity in MV411” value is listed as “D (D (<10 fold))”. Further, on SMARCA4, the Dmax was > 90% and the DC50 fell in the range of 1 to 10 nM.

For the compound `Cc1ncsc1-c1ccc(CNC(=O)[C@@H]2C[C@@H](O)CN2C(=O)[C@@H](NC(=O)C2(F)CC2)C(C)(C)C)c(OC2CCN(Cc3cnc(N4CCc5[nH]c6nnc(-c7ccccc7O)cc6c5[C@@H]4C)nc3)CC2)c1` (single isomer, unassigned) [I-43], at SMARCA2, the greatest degradation seen (Dmax) was < 50%, the 50% degradation concentration (DC50) was > 100 nM and the “Selectivity in MV411” value is “C (C (10-100 fold))”. Besides, at SMARCA4, the greatest degradation seen (Dmax) is < 50% and the DC50 is > 100 nM.

Turning to `Cc1ncsc1-c1ccc(CNC(=O)[C@@H]2C[C@@H](O)CN2C(=O)[C@@H](NC(=O)C2(F)CC2)C(C)(C)C)c(OCCCCN2CCC(c3ccnc(N4CCN5c6cc(-c7ccccc7O)nnc6NC[C@H]5C4)n3)CC2)c1` (single isomer, unassigned) [I-46], at SMARCA2, the Dmax is > 90%, the DC50 was < 1 nM and the “Selectivity in MV411” value is reported as “D (D (<10 fold))”. Also, at SMARCA4, the greatest degradation seen (Dmax) was > 90% and the 50% degradation concentration (DC50) was in the range of 1 to 10 nM.

With `C#Cc1ccc([C@H](C)NC(=O)[C@@H]2C[C@@H](O)CN2C(=O)[C@@H](NC(=O)[C@H]2CCC3(CC2)C[C@H](N2CCC(c4cnc(N5CCN6c7cc(-c8ccccc8O)nnc7NC[C@H]6C5)nc4)CC2)C3)C(C)(C)C)cc1` (single isomer, unassigned) [I-57], at SMARCA2, the “SMARCA2 MSD MV411 degradation 24 h: average Dmax %” value is given as “B (B (>70-90% degradation))”, the DC50 was in the range of 1 to 10 nM and the “Selectivity in MV411” value is “B (B (>100-500 fold))”. Further, at SMARCA4, the “SMARCA4 MSD MV411 degradation 24 h: average Dmax %” value is on record as “D (D (<50% degradation))” and the DC50 was > 100 nM.

Turning to `C#Cc1ccc(CNC(=O)[C@@H]2C[C@@H](O)CN2C(=O)[C@@H](NC(=O)[C@H]2CC[C@H](c3ccc(-c4cnc(N5CCN6c7cc(-c8ccccc8O)nnc7NC[C@H]6C5)nc4)cc3)CC2)C(C)(C)C)cc1` [I-23], on SMARCA2, the Dmax was in the range of 70 to 90%, the DC50 lay within 10 to 100 nM and the “Selectivity in MV411” value is on record as “C (C (10-100 fold))”. On SMARCA4, the Dmax was < 50% and the DC50 was > 100 nM.

`C#Cc1ccc(CNC(=O)[C@@H]2C[C@@H](O)CN2C(=O)[C@@H](NC(=O)[C@H]2CCC3(CC2)C[C@H](N2CCC(c4cnc(N5CCN6c7cc(-c8ccccc8O)nnc7NC[C@H]6C5)nc4)CC2)C3)C(C)(C)C)cc1` (single isomer, unassigned) [I-26]: on SMARCA2, the “SMARCA2 MSD MV411 degradation 24 h: average Dmax %” value is on record as “B (B (>70-90% degradation))”, the DC50 fell in the range of 1 to 10 nM and the “Selectivity in MV411” value is “B (B (>100-500 fold))”. For the same compound, on SMARCA4, the “SMARCA4 MSD MV411 degradation 24 h: average Dmax %” value is “C (C (50-70% degradation))” and the DC50 was > 100 nM.

Take `Cc1ncsc1-c1ccc(CNC(=O)[C@@H]2C[C@@H](O)CN2C(=O)[C@@H](NC(=O)N2CC3(CC(N4CCN(c5ccnc(N6CCN7c8cc(-c9ccccc9O)nnc8NC[C@H]7C6)n5)CC4)C3)C2)C(C)(C)C)cc1` [I-72]: at SMARCA2, the Dmax was 70 to 90%, the DC50 is < 1 nM and the “Selectivity in MV411” value was “D (D (<10 fold))”. Further, at SMARCA4, the Dmax is 70 to 90% and the DC50 lay in the range of 1 to 10 nM.

As for `Cc1ncsc1-c1ccc(CNC(=O)[C@@H]2C[C@@H](O)CN2C(=O)[C@@H](NC(=O)N2CCC3(CCC(N4CCC(c5cnc(N6CCN7c8cc(-c9ccccc9O)nnc8NC[C@H]7C6)nc5)CC4)CC3)CC2)C(C)(C)C)cc1` [I-68], on SMARCA2, the Dmax was in the range of 50 to 70%, the 50% degradation concentration (DC50) fell in the range of 10 to 100 nM and the “Selectivity in MV411” value was “C (C (10-100 fold))”. Besides, on SMARCA4, the maximal degradation (Dmax) is < 50% and the half-maximal degradation concentration (DC50) was > 100 nM.

For the compound `Cc1ncsc1-c1ccc(CNC(=O)[C@@H]2C[C@@H](O)CN2C(=O)[C@@H](NC(=O)[C@H]2CCC3(CC2)C[C@H](N2CCC(c4cnc(N5CCN6c7cc(-c8ccccc8O)nnc7NC[C@H]6C5)nc4)CC2)C3)C(C)(C)C)cc1` (single isomer, unassigned) [I-70], at SMARCA2, the greatest degradation seen (Dmax) was 70 to 90%, the 50% degradation concentration (DC50) was in the range of 1 to 10 nM and the “Selectivity in MV411” value is reported as “A (A (>500 fold))”. On SMARCA4, the Dmax is < 50% and the DC50 is > 100 nM.

With `CC(C)C(C(=O)N1C[C@H](O)C[C@H]1C(=O)NCc1ccc(C#N)cc1)c1cc(N2CC3(CC(N4CCC(c5cnc(N6CCN7c8cc(-c9ccccc9O)nnc8NC[C@H]7C6)nc5)CC4)C3)C2)no1` (stereo partly drawn) [I-20], at SMARCA2, the Dmax was < 50%, the DC50 was > 100 nM and the “Selectivity in MV411” value is listed as “C (C (10-100 fold))”. Moreover, on SMARCA4, the Dmax was < 50% and the DC50 was > 100 nM.

As for `Cc1ncsc1-c1ccc(CNC(=O)[C@@H]2C[C@@H](O)CN2C(=O)[C@@H](NC(=O)C2(F)CC2)C(C)(C)C)c(OC2CCN(Cc3cnc(N4CCc5[nH]c6nnc(-c7ccccc7O)cc6c5[C@H]4C)nc3)CC2)c1` (single isomer, unassigned) [I-42], on SMARCA2, the maximal degradation (Dmax) is 50 to 70%, the DC50 was 10 to 100 nM and the “Selectivity in MV411” value is reported as “C (C (10-100 fold))”. At SMARCA4, the Dmax was in the range of 70 to 90% and the DC50 is > 100 nM.

As for `C#Cc1ccc([C@H](C)NC(=O)[C@@H]2C[C@@H](O)CN2C(=O)[C@@H](NC(=O)[C@H]2CCC3(CC2)C[C@H](N2CCC(c4cnc(N5CCN6c7cc(-c8ccccc8O)nnc7NC[C@H]6C5)nc4)CC2)C3)C(C)(C)C)cc1` (single isomer, unassigned) [I-56], at SMARCA2, the Dmax was 70 to 90%, the DC50 lay in the range of 1 to 10 nM and the “Selectivity in MV411” value is recorded as “A (A (>500 fold))”. At SMARCA4, the greatest degradation seen (Dmax) lay in the range of 50 to 70% and the 50% degradation concentration (DC50) is > 100 nM.

With `Cc1ncsc1-c1ccc(CNC(=O)[C@@H]2C[C@@H](O)CN2C(=O)[C@H](c2cc(N3CC4(CC(N5CCC(c6cnc(N7CCN8c9cc(-c%10ccccc%10O)nnc9NC[C@H]8C7)nc6)CC5)C4)C3)no2)C(C)C)cc1` (single isomer, unassigned) [I-54], on SMARCA2, the greatest degradation seen (Dmax) is > 90%, the DC50 was in the range of 1 to 10 nM and the “Selectivity in MV411” value is recorded as “C (C (10-100 fold))”. Moreover, on SMARCA4, the Dmax is 70 to 90% and the DC50 lay in the range of 10 to 100 nM.

With `Cc1ncsc1-c1ccc(CNC(=O)[C@@H]2C[C@@H](O)CN2C(=O)[C@@H](NC(=O)[C@H]2CC3(CC[C@H](N4CCC(c5cnc(N6CCN7c8cc(-c9ccccc9O)nnc8NC[C@H]7C6)nc5)CC4)CC3)C2)C(C)(C)C)cc1` (single isomer, unassigned) [I-65], on SMARCA2, the Dmax is > 90%, the DC50 lay in the range of 1 to 10 nM and the “Selectivity in MV411” value is on record as “C (C (10-100 fold))”. For the same compound, at SMARCA4, the maximal degradation (Dmax) was in the range of 70 to 90% and the DC50 is 10 to 100 nM.

Consider `Cc1ncsc1-c1ccc(CNC(=O)[C@@H]2C[C@@H](O)CN2C(=O)[C@@H](c2cc(N3CC4(CC(N5CCC(c6cnc(N7CCN8c9cc(-c%10ccccc%10O)nnc9NC[C@H]8C7)nc6)CC5)C4)C3)no2)C(C)C)cc1` (single isomer, unassigned) [I-55], for which, at SMARCA2, the Dmax is > 90%, the half-maximal degradation concentration (DC50) was < 1 nM and the “Selectivity in MV411” value is “D (D (<10 fold))”. Further, on SMARCA4, the greatest degradation seen (Dmax) was > 90% and the DC50 was < 1 nM.

One may read the Dmax as the largest share of the target that was removed. As usually defined, the DC50 is the concentration at which degradation of the target reaches its halfway point.
